In publication PMC12406204 (Journal of Medicinal Chemistry, 2025):

Experiments:
CB1R = CB1R (Homo sapiens, UniProt P21554); experiment: CB1R radioligand binding competition ([3H]CP55,940); design: host or cells: CHO-CB1 C3 cell line; details: for Ki: displacement of [3H]CP 55,940, membranes of CHO-CB1 C3 cells, n = 3; for CB1R % at 1 μM: percentage displacement of specific [3H]CP 55,940 binding at 1 μM, n = 2
CB2R = CB2R (Homo sapiens, UniProt P34972); experiment: CB2R radioligand binding competition ([3H]CP55,940); design: expressed in transfected cells; host or cells: HEK-293T (HEK-CB2 cell line); details: for Ki: displacement of [3H]CP 55,940, membranes of HEK-293T cells, n = 3; for SI Ki CB1R/Ki CB2R: selectivity index, affinity ratio; for CB2R % at 1 μM: percentage displacement of specific [3H]CP 55,940 binding at 1 μM, n = 2
Chain of CB2R (P34972 whole entry): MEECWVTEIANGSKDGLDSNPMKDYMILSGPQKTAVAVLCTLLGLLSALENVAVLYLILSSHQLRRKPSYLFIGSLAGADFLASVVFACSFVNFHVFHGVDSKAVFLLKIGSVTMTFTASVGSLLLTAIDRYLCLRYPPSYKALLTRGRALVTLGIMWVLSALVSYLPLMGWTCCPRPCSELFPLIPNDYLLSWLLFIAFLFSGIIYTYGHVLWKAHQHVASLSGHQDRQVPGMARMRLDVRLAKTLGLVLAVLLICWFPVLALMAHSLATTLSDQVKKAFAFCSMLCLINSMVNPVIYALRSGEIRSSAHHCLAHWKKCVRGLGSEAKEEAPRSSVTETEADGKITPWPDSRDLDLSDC

Chain of CB1R (P21554 whole entry): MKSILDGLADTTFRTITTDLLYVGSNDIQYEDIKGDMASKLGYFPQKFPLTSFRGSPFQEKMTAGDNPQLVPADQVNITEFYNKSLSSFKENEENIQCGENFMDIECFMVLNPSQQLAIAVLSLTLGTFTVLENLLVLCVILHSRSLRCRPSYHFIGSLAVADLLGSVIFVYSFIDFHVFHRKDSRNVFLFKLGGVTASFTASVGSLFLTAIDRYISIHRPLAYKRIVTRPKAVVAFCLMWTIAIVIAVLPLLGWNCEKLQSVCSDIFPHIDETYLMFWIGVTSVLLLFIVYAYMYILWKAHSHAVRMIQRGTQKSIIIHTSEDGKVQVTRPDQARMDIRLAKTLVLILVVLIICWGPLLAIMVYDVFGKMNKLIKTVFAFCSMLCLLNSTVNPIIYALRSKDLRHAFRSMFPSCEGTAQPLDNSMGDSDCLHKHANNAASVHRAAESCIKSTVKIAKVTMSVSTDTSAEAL

Structure (SMILES)	Ki (CB1R)	Ki (CB2R)	SI Ki CB1R/Ki CB2R (CB2R)	CB1R % at 1 μM (CB1R)	CB2R % at 1 μM (CB2R)
COC(=O)[C@@H]1CCCN1C(=O)c1nn(Cc2ccc(F)cc2)c2ccccc12 [15o]	0.0462 ± 0.0023 µM	0.0165 ± 0.0011 µM	3	–	–
COC(=O)[C@H]1CCCN1C(=O)c1nn(CC2CCCCC2)c2ccccc12 [15n]	–	0.0993 ± 0.0028 µM	>100	2%	–
COC(=O)[C@@H]1CCCN1C(=O)c1cn(CCCCCF)c2ccccc12 [15c]	0.0559 ± 0.0027 µM	0.0717 ± 0.002 µM	0.8	–	–
NC(=O)[C@@H]1CCCCN1C(=O)c1cn(Cc2ccc(F)cc2)c2ccccc12 [18g]	–	0.115 ± 0.005 µM	>100	21%	–
NC(=O)[C@@H]1CCCCN1C(=O)c1nn(CC2CCCCC2)c2ccccc12 [18m]	–	0.0595 ± 0.0028 µM	>100	21%	–
NC(=O)[C@H]1CCCCN1C(=O)c1nn(CC2CCCCC2)c2ccccc12 [18n]	–	0.112 ± 0.004 µM	>100	26%	–
NC(=O)[C@H]1CCCN1C(=O)c1nn(Cc2ccc(F)cc2)c2ccccc12 [17p]	–	–	–	4%	12%
COC(=O)[C@@H]1CCCCN1C(=O)c1cn(Cc2ccc(F)cc2)c2ccccc12 [16g]	0.0903 ± 0.0023 µM	0.0225 ± 0.0011 µM	4	–	–
CCCCCn1cc(C(=O)N2CCC[C@@H]2C(N)=O)c2ccccc21 [17b]	–	–	–	3%	17%
CCCCCn1nc(C(=O)N2CCC[C@@H]2C(N)=O)c2ccccc21 [17j]	–	–	–	3%	28%
NC(=O)[C@@H]1CCCN1C(=O)c1nn(CC2CCCCC2)c2ccccc12 [17m]	–	–	–	1%	27%
COC(=O)[C@@H]1CCCN1C(=O)c1nn(CCCCCF)c2ccccc12 [15k]	0.173 ± 0.005 µM	0.0419 ± 0.0021 µM	4	–	–
NC(=O)[C@H]1CCCCN1C(=O)c1cn(CCCCCF)c2ccccc12 [18d]	–	0.169 ± 0.006 µM	>100	15%	–
COC(=O)[C@@H]1CCCCN1C(=O)c1cn(CCCCCF)c2ccccc12 [16c]	0.716 ± 0.016 µM	0.0841 ± 0.0019 µM	8	–	–
NC(=O)[C@@H]1CCCCN1C(=O)c1cn(CCCCCF)c2ccccc12 [18c]	–	0.132 ± 0.004 µM	>100	7%	–
NC(=O)[C@@H]1CCCN1C(=O)c1nn(Cc2ccc(F)cc2)c2ccccc12 [17o]	–	0.628 ± 0.021 µM	>100	4%	–
COC(=O)[C@H]1CCCCN1C(=O)c1nn(CC2CCCCC2)c2ccccc12 [16n]	–	0.164 ± 0.005 µM	>100	3%	–
CCCCCn1cc(C(=O)N2CCCC[C@H]2C(N)=O)c2ccccc21 [18a]	–	0.111 ± 0.006 µM	>100	3%	–
CCCCCn1cc(C(=O)N2CCC[C@H]2C(=O)OC)c2ccccc21 [15a]	0.121 ± 0.006 µM	0.189 ± 0.01 µM	0.6	–	–
NC(=O)[C@H]1CCCCN1C(=O)c1nn(CCCCCF)c2ccccc12 [18l]	–	0.143 ± 0.005 µM	>100	3%	–

Structure (SMILES)	Ki (CB1R)	Ki (CB2R)	SI Ki CB1R/Ki CB2R (CB2R)	CB1R % at 1 μM (CB1R)	CB2R % at 1 μM (CB2R)
NC(=O)[C@H]1CCCCN1C(=O)c1cn(Cc2ccc(F)cc2)c2ccccc12 [18h]	–	0.207 ± 0.009 µM	>100	3%	–
COC(=O)[C@@H]1CCCN1C(=O)c1cn(CC2CCCCC2)c2ccccc12 [15e]	0.0113 ± 0.0005 µM	0.0383 ± 0.0021 µM	0.3	–	–
COC(=O)[C@@H]1CCCCN1C(=O)c1cn(CC2CCCCC2)c2ccccc12 [16e]	0.122 ± 0.008 µM	0.0451 ± 0.0017 µM	3	–	–
CCCCCn1nc(C(=O)N2CCC[C@H]2C(N)=O)c2ccccc21 [17i]	–	–	–	2%	31%
COC(=O)[C@@H]1CCCCN1C(=O)c1nn(Cc2ccc(F)cc2)c2ccccc12 [16o]	0.0654 ± 0.0024 µM	0.0041 ± 0.00012 µM	16	–	–
COC(=O)[C@H]1CCCN1C(=O)c1cn(CCCCCF)c2ccccc12 [15d]	–	–	–	3%	26%
COc1ccc2c(c1)c(CCN1CCOCC1)c(C)n2C(=O)c1cccc(Cl)c1Cl [GW405833, reference compound]	4.77 ± 0.11 µM	0.0058 ± 0.0004 µM	822	–	–
CCCCCn1nc(C(=O)N2CCC[C@H]2C(=O)OC)c2ccccc21 [15i]	0.337 ± 0.009 µM	0.0759 ± 0.0022 µM	4	–	–
COC(=O)[C@@H]1CCCN1C(=O)c1cn(Cc2ccc(F)cc2)c2ccccc12 [15g]	0.0144 ± 0.0006 µM	0.0477 ± 0.0019 µM	0.3	–	–
COC(=O)[C@@H]1CCCCN1C(=O)c1nn(CCCCCF)c2ccccc12 [16k]	0.392 ± 0.005 µM	0.0106 ± 0.0007 µM	37	–	–
CCCCCn1nc(C(=O)N2CCCC[C@@H]2C(N)=O)c2ccccc21 [18j]	–	0.145 ± 0.006 µM	>100	2%	–
CCCCCn1cc(C(=O)N2CCC[C@H]2C(N)=O)c2ccccc21 [17a]	–	–	–	2%	24%
COC(=O)[C@H]1CCCN1C(=O)c1nn(CCCCCF)c2ccccc12 [15l]	–	0.513 ± 0.003 µM	>100	1%	–
NC(=O)[C@H]1CCCN1C(=O)c1cn(CCCCCF)c2ccccc12 [17d]	–	–	–	5%	16%
NC(=O)[C@@H]1CCCN1C(=O)c1cn(CCCCCF)c2ccccc12 [17c]	–	–	–	1%	15%
COC(=O)[C@H]1CCCCN1C(=O)c1cn(CC2CCCCC2)c2ccccc12 [16f]	–	0.0931 ± 0.0033 µM	>100	37%	–
NC(=O)[C@H]1CCCN1C(=O)c1cn(CC2CCCCC2)c2ccccc12 [17f]	–	0.411 ± 0.016 µM	>100	3%	–
COC(=O)[C@H]1CCCCN1C(=O)c1nn(CCCCCF)c2ccccc12 [16l]	–	0.127 ± 0.005 µM	>100	5%	–
CCCCCn1cc(C(=O)N2CCC[C@@H]2C(=O)OC)c2ccccc21 [15b]	–	–	–	4%	25%
CCCCCn1cc(C(=O)N2CCCC[C@H]2C(=O)OC)c2ccccc21 [16a]	0.644 ± 0.013 µM	0.114 ± 0.006 µM	6	–	–

Structure (SMILES)	Ki (CB1R)	Ki (CB2R)	SI Ki CB1R/Ki CB2R (CB2R)	CB1R % at 1 μM (CB1R)	CB2R % at 1 μM (CB2R)
NC(=O)[C@H]1CCCN1C(=O)c1cn(Cc2ccc(F)cc2)c2ccccc12 [17h]	–	–	–	4%	7%
CCCCCn1nc(C(=O)N2CCC[C@@H]2C(=O)OC)c2ccccc21 [15j]	–	0.208 ± 0.005 µM	>100	4%	–
NC(=O)[C@@H]1CCCCN1C(=O)c1nn(CCCCCF)c2ccccc12 [18k]	–	0.151 ± 0.006 µM	>100	3%	–
NC(=O)[C@@H]1CCCN1C(=O)c1nn(CCCCCF)c2ccccc12 [17k]	–	–	–	2%	17%
COC(=O)[C@@H]1CCCN1C(=O)c1nn(CC2CCCCC2)c2ccccc12 [15m]	0.0734 ± 0.0029 µM	0.0207 ± 0.0006 µM	3	–	–
COC(=O)[C@H]1CCCCN1C(=O)c1nn(Cc2ccc(F)cc2)c2ccccc12 [16p]	–	0.0484 ± 0.0018 µM	>100	–	–
COC(=O)[C@H]1CCCCN1C(=O)c1cn(CCCCCF)c2ccccc12 [16d]	–	0.251 ± 0.007 µM	>100	24%	–
CCCCCn1cc(C(=O)N2CCCC[C@@H]2C(=O)OC)c2ccccc21 [16b]	–	0.273 ± 0.004 µM	>100	18%	–
NC(=O)[C@H]1CCCN1C(=O)c1nn(CCCCCF)c2ccccc12 [17l]	–	–	–	4%	25%
COC(=O)[C@H]1CCCN1C(=O)c1cn(CC2CCCCC2)c2ccccc12 [15f]	–	0.463 ± 0.011 µM	>100	32%	–
CCCCCn1nc(C(=O)N2CCCC[C@H]2C(N)=O)c2ccccc21 [18i]	–	0.0918 ± 0.0049 µM	>100	2%	–
CCc1c(C(=O)NN2CCCCC2)nn(-c2ccc(Cl)cc2Cl)c1-c1ccc(Br)cc1 [Surinabant, reference compound]	0.003 ± 0.0002 µM	0.4 ± 0.006 µM	0.0075	–	–
NC(=O)[C@@H]1CCCN1C(=O)c1cn(Cc2ccc(F)cc2)c2ccccc12 [17g]	–	–	–	3%	20%
COC(=O)[C@H]1CCCN1C(=O)c1nn(Cc2ccc(F)cc2)c2ccccc12 [15p]	–	0.157 ± 0.004 µM	>100	5%	–
COC(=O)[C@@H]1CCCCN1C(=O)c1nn(CC2CCCCC2)c2ccccc12 [16m]	0.162 ± 0.003 µM	0.0052 ± 0.0004 µM	31	–	–
NC(=O)[C@@H]1CCCN1C(=O)c1cn(CC2CCCCC2)c2ccccc12 [17e]	–	0.288 ± 0.007 µM	>100	6%	–
CCCCCn1cc(C(=O)N2CCCC[C@@H]2C(N)=O)c2ccccc21 [18b]	–	0.136 ± 0.005 µM	>100	10%	–
NC(=O)[C@H]1CCCN1C(=O)c1nn(CC2CCCCC2)c2ccccc12 [17n]	–	–	–	2%	28%
COC(=O)[C@H]1CCCN1C(=O)c1cn(Cc2ccc(F)cc2)c2ccccc12 [15h]	–	0.599 ± 0.013 µM	>100	10%	–
COC(=O)[C@H]1CCCCN1C(=O)c1cn(Cc2ccc(F)cc2)c2ccccc12 [16h]	–	0.109 ± 0.004 µM	>100	35%	–
